Experimental data published in ChEMBL document CHEMBL1275354, “Anticonvulsant activity of 2,4(1H)-diarylimidazoles in mice and rats acute seizure models” (Bioorg Med Chem, 2010).
Activity calls are given as the source filed them. The calls are words filed in the database; no cut-off is given here.

Legend:
Mus musculus [1] = assay: Anticonvulsant activity in albino CF1 mouse assessed as protection against subcutaneous metrazole-induced seizures at 300 mg/kg, ip after 4 hrs; assay type: functional, organism-based; parameters: dose 300 mg/kg
Mus musculus [2] = assay: Neurotoxicity in ip dosed albino CF1 mouse assessed as minimum dose required to cause toxicity after 4 hrs by rotarod test; assay type: organism-based; details: in vivo
Mus musculus [3] = assay: Anticonvulsant activity in albino CF1 mouse assessed as protection against subcutaneous metrazole-induced seizures at 100 mg/kg, ip after 0.5 hrs; assay type: functional, organism-based; parameters: dose 100 mg/kg
Rattus norvegicus [4] = assay: Anticonvulsant activity in albino Sprague-Dawley rat assessed as protection against maximal electroshock-induced seizures at 30 mg/kg, po after 0.5 hrs; assay type: functional, organism-based; parameters: dose 30 mg/kg
Mus musculus [5] = assay: Anticonvulsant activity in albino CF1 mouse assessed as protection against maximal electroshock-induced seizures at 100 mg/kg, ip after 4 hrs; assay type: functional, organism-based; parameters: dose 100 mg/kg
Mus musculus [6] = assay: Neurotoxicity in albino CF1 mouse assessed as minimal motor impairment at 30 mg/kg, ip after 0.5 hrs by rotarod test; assay type: toxicity, organism-based; parameters: dose 30 mg/kg, route intraperitoneal; details: in vivo
Mus musculus [7] = assay: Anticonvulsant activity in albino CF1 mouse assessed as protection against subcutaneous metrazole-induced seizures at 300 mg/kg, ip after 0.5 hrs; assay type: functional, organism-based; parameters: dose 300 mg/kg
Mus musculus [8] = assay: Anticonvulsant activity in albino CF1 mouse assessed as protection against maximal electroshock-induced seizures at 300 mg/kg, ip after 0.5 hrs; assay type: functional, organism-based; parameters: dose 300 mg/kg
Rattus norvegicus [9] = assay: Anticonvulsant activity in albino Sprague-Dawley rat assessed as protection against maximal electroshock-induced seizures at 30 mg/kg, po after 2 hrs; assay type: functional, organism-based; parameters: dose 30 mg/kg
Rattus norvegicus [10] = assay: Neurotoxicity in albino Sprague-Dawley rat assessed as minimal motor impairment at 30 mg/kg, po by rotarod test; assay type: toxicity, organism-based; parameters: dose 30 mg/kg, route oral; details: in vivo
Mus musculus [11] = assay: Neurotoxicity in albino CF1 mouse assessed as minimal motor impairment at 100 mg/kg, ip after 4 hrs by rotarod test; assay type: toxicity, organism-based; parameters: dose 100 mg/kg, route intraperitoneal; details: in vivo
Mus musculus [12] = assay: Anticonvulsant activity in albino CF1 mouse assessed as protection against subcutaneous metrazole-induced seizures at 30 mg/kg, ip after 0.5 hrs; assay type: functional, organism-based; parameters: dose 30 mg/kg
Mus musculus [13] = assay: Anticonvulsant activity in albino CF1 mouse assessed as protection against maximal electroshock-induced seizures at 30 mg/kg, ip after 4 hrs; assay type: functional, organism-based; parameters: dose 30 mg/kg
Mus musculus [14] = assay: Anticonvulsant activity against maximal electroshock-induced seizures in ip dosed albino CF1 mouse assessed as minimum effective dose after 0.5 hrs; assay type: functional; details: read-out: MED
Mus musculus [15] = assay: Anticonvulsant activity against maximal electroshock-induced seizures in ip dosed albino CF1 mouse assessed as minimum effective dose after 4 hrs; assay type: functional; details: read-out: MED
Rattus norvegicus [16] = assay: Anticonvulsant activity in albino Sprague-Dawley rat assessed as protection against maximal electroshock-induced seizures at 30 mg/kg, po after 1 hr; assay type: functional, organism-based; parameters: dose 30 mg/kg
Mus musculus [17] = assay: Neurotoxicity in albino CF1 mouse assessed as minimal motor impairment at 30 mg/kg, ip after 4 hrs by rotarod test; assay type: toxicity, organism-based; parameters: dose 30 mg/kg, route intraperitoneal; details: in vivo
Mus musculus [18] = assay: Anticonvulsant activity in albino CF1 mouse assessed as protection against maximal electroshock-induced seizures at 30 mg/kg, ip after 0.5 hrs; assay type: functional, organism-based; parameters: dose 30 mg/kg
Mus musculus [19] = assay: Neurotoxicity in ip dosed albino CF1 mouse assessed as minimum dose required to cause toxicity after 0.5 hrs by rotarod test; assay type: organism-based; details: in vivo
Mus musculus [20] = assay: Anticonvulsant activity in albino CF1 mouse assessed as protection against subcutaneous metrazole-induced seizures at 30 mg/kg, ip after 4 hrs; assay type: functional, organism-based; parameters: dose 30 mg/kg
Mus musculus [21] = assay: Anticonvulsant activity in albino CF1 mouse assessed as protection against subcutaneous metrazole-induced seizures at 100 mg/kg, ip after 4 hrs; assay type: functional, organism-based; parameters: dose 100 mg/kg
Mus musculus [22] = assay: Anticonvulsant activity against subcutaneous metrazole-induced seizures in ip dosed albino CF1 mouse assessed as minimum effective dose after 0.5 hrs; assay type: functional; details: albino CF1, 0.5 h, read-out: MED
Mus musculus [23] = assay: Neurotoxicity in albino CF1 mouse assessed as minimal motor impairment at 30 to 300 mg/kg, ip after 0.5 hrs by rotarod test; details: in vivo
Rattus norvegicus [24] = assay: Anticonvulsant activity in albino Sprague-Dawley rat assessed as protection against maximal electroshock-induced seizures at 30 mg/kg, po after 0.25 hrs; assay type: functional, organism-based; parameters: dose 30 mg/kg
Mus musculus [25] = assay: Anticonvulsant activity in albino CF1 mouse assessed as protection against maximal electroshock-induced seizures at 100 mg/kg, ip after 0.5 hrs; assay type: functional, organism-based; parameters: dose 100 mg/kg
Rattus norvegicus [26] = assay: Anticonvulsant activity in albino Sprague-Dawley rat assessed as protection against maximal electroshock-induced seizures at 30 mg/kg, po after 4 hrs; assay type: functional, organism-based; parameters: dose 30 mg/kg
Mus musculus [27] = assay: Anticonvulsant activity against subcutaneous metrazole-induced seizures in ip dosed albino CF1 mouse assessed as minimum effective dose after 4 hrs; assay type: functional; details: albino CF1, 4 h, read-out: MED
Mus musculus [28] = assay: Anticonvulsant activity in albino CF1 mouse assessed as protection against maximal electroshock-induced seizures at 300 mg/kg, ip after 4 hrs; assay type: functional, organism-based; parameters: dose 300 mg/kg
Mus musculus [29] = assay: Neurotoxicity in albino CF1 mouse assessed as minimal motor impairment at 300 mg/kg, ip after 4 hrs by rotarod test; assay type: toxicity, organism-based; parameters: dose 300 mg/kg, route intraperitoneal; details: in vivo
Mus musculus [30] = assay: Neurotoxicity in albino CF1 mouse assessed as minimal motor impairment at 30 to 300 mg/kg, po after 4 hrs by rotarod test; assay type: toxicity, organism-based; parameters: dose 30-300 mg/kg, route oral; details: in vivo
Mus musculus [31] = assay: Neurotoxicity in albino CF1 mouse assessed as minimal motor impairment at 300 mg/kg, ip after 0.5 hrs by rotarod test; assay type: toxicity, organism-based; parameters: dose 300 mg/kg, route intraperitoneal; details: in vivo
Mus musculus [32] = assay: Neurotoxicity in albino CF1 mouse assessed as minimal motor impairment at 100 mg/kg, ip after 0.5 hrs by rotarod test; assay type: toxicity, organism-based; parameters: dose 100 mg/kg, route intraperitoneal; details: in vivo

Row | SMILES | Activity (Mus musculus [1]) | MED (Mus musculus [2]) | Activity (Mus musculus [3]) | Activity (Mus musculus [6]) | Activity (Mus musculus [7]) | Activity (Mus musculus [8]) | Activity (Mus musculus [11]) | Activity (Mus musculus [12]) | Activity (Mus musculus [13]) | minimal effective dose (Mus musculus [14]) | minimal effective dose (Mus musculus [15]) | Activity (Mus musculus [17]) | Activity (Mus musculus [18]) | MED (Mus musculus [19]) | Activity (Mus musculus [20]) | Activity (Mus musculus [21]) | minimal effective dose (Mus musculus [22]) | Activity (Mus musculus [23]) | Activity (Mus musculus [25]) | minimal effective dose (Mus musculus [27]) | further results
1 | c1ccc(-c2c[nH]c(-c3cccnc3)n2)cc1 | inactive | 100 mg/kg | Active | Non-toxic | Active | Active | Non-toxic | inactive | inactive | 100 mg/kg | 100 mg/kg | Non-toxic | inactive | 100 mg/kg | inactive | inactive | 100 mg/kg | Non-toxic | Active | > 300 mg/kg | Activity (Rattus norvegicus [4]): inactive; Activity (Mus musculus [5]): inactive; Activity (Rattus norvegicus [9]): inactive; Activity (Rattus norvegicus [10]): Non-toxic; Activity (Rattus norvegicus [16]): inactive; Activity (Rattus norvegicus [24]): inactive; Activity (Rattus norvegicus [26]): inactive; Activity (Mus musculus [28]): Active
2 | COc1cccc(-c2c[nH]c(-c3ccccc3)n2)c1 | inactive | > 300 mg/kg | inactive | Non-toxic | inactive | Active | Non-toxic | inactive | inactive | > 30 mg/kg | > 300 mg/kg | Non-toxic | inactive | 100 mg/kg | inactive | inactive | > 300 mg/kg | Non-toxic | Active | > 300 mg/kg | Activity (Rattus norvegicus [4]): inactive; Activity (Mus musculus [29]): Non-toxic; Activity (Rattus norvegicus [9]): inactive; Activity (Rattus norvegicus [10]): Non-toxic; Activity (Rattus norvegicus [16]): inactive; Activity (Mus musculus [30]): Non-toxic; Activity (Rattus norvegicus [24]): inactive; Activity (Rattus norvegicus [26]): inactive; Activity (Mus musculus [28]): inactive
3 | O=[N+]([O-])c1ccc(-c2nc(-c3cccc(C(F)(F)F)c3)c[nH]2)cc1 | inactive | > 300 mg/kg | inactive | Non-toxic | inactive | inactive | Non-toxic | inactive | inactive | > 300 mg/kg | 100 mg/kg | Non-toxic | inactive | > 300 mg/kg | inactive | inactive | > 300 mg/kg | Non-toxic | inactive | > 300 mg/kg | Activity (Mus musculus [31]): Non-toxic; Activity (Mus musculus [5]): inactive; Activity (Mus musculus [29]): Non-toxic; Activity (Mus musculus [32]): Non-toxic; Activity (Mus musculus [30]): Non-toxic; Activity (Mus musculus [28]): Active
4 | FC(F)(F)c1cccc(-c2c[nH]c(-c3ccc(Cl)cc3)n2)c1 | inactive | > 300 mg/kg | inactive | Non-toxic | inactive | inactive | Non-toxic | inactive | inactive | > 300 mg/kg | > 300 mg/kg | Non-toxic | inactive | > 300 mg/kg | inactive | inactive | > 300 mg/kg | Non-toxic | inactive | > 300 mg/kg | Activity (Mus musculus [31]): Non-toxic; Activity (Mus musculus [5]): inactive; Activity (Mus musculus [29]): Non-toxic; Activity (Mus musculus [32]): Non-toxic; Activity (Mus musculus [30]): Non-toxic; Activity (Mus musculus [28]): inactive
5 | Clc1ccc(-c2c[nH]c(-c3ccccc3)n2)cc1 | inactive | > 300 mg/kg | inactive | Non-toxic | inactive | Active | Non-toxic | inactive | inactive | > 30 mg/kg | 100 mg/kg | Non-toxic | inactive | 100 mg/kg | inactive | inactive | > 300 mg/kg | Non-toxic | Active | > 300 mg/kg | Activity (Rattus norvegicus [4]): inactive; Activity (Mus musculus [5]): inactive; Activity (Mus musculus [29]): Non-toxic; Activity (Mus musculus [32]): Non-toxic; Activity (Rattus norvegicus [9]): inactive; Activity (Rattus norvegicus [10]): Non-toxic; Activity (Rattus norvegicus [16]): inactive; Activity (Mus musculus [30]): Non-toxic; Activity (Rattus norvegicus [24]): inactive; Activity (Rattus norvegicus [26]): inactive; Activity (Mus musculus [28]): Active
